Experimental data: PubChem BioAssay (NCI)
Several values for one entry are separate records, joined by “and”; a condition that tells them apart may be missing. Identical values can stand only once.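 Protocol summary: plate cells (96-well), add compound at 5 concentrations, incubate 48 h, interpolate endpoints linearly. Abbreviation: GI50, concentration required for 50% inhibition of growth. TGI marks complete inhibition of growth.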

What was measured:
Experiment in all cases: NCI anticancer screen, dose series, 48 h
T-47D breast = tested on: T-47D breast
NCI-H522 lung = tested on: NCI-H522 lung
HOP-62 NSCLC = tested on: HOP-62 NSCLC
RXF 393 renal = tested on: RXF 393 renal
IGROV1 ovarian = tested on: IGROV1 ovarian
ACHN renal = tested on: ACHN renal
HS 578T breast = tested on: HS 578T breast
NCI/ADR-RES ovarian = tested on: NCI/ADR-RES ovarian
U251 CNS = tested on: U251 CNS
A549 NSCLC = tested on: A549 NSCLC

| Compound | GI50 (T-47D breast) | TGI (T-47D breast) | GI50 (NCI-H522 lung) | TGI (NCI-H522 lung) | GI50 (HOP-62 NSCLC) | TGI (HOP-62 NSCLC) | GI50 (RXF 393 renal) | TGI (RXF 393 renal) | GI50 (IGROV1 ovarian) | TGI (IGROV1 ovarian) | GI50 (ACHN renal) | TGI (ACHN renal) | GI50 (HS 578T breast) | TGI (HS 578T breast) | GI50 (NCI/ADR-RES ovarian) | TGI (NCI/ADR-RES ovarian) | GI50 (U251 CNS) | TGI (U251 CNS) | GI50 (A549 NSCLC) | TGI (A549 NSCLC) |
| --- | --- | --- | --- | --- | --- | --- | --- | --- | --- | --- | --- | --- | --- | --- | --- | --- | --- | --- | --- | --- |
| O=C(NO)C(O)C(O)C(O)C(O)CO (configuration not stated) | > 100 µM | > 100 µM | > 100 µM and 44.7 µM | > 100 µM | > 92.5 µM and 68.3 µM | > 100 µM | > 100 µM | > 100 µM | > 100 µM and 23.3 µM | > 100 µM and 80.2 µM | > 100 µM | > 100 µM | > 100 µM | > 100 µM | > 100 µM | > 100 µM | > 100 µM | > 100 µM | > 100 µM and 54.1 µM | > 100 µM |
| COc1cc(C(=O)N/N=C/c2cccc([N+](=O)[O-])c2)cc(OC)c1OC | 35.6 µM | > 100 µM | 2.45 µM | 5.74 µM | 18.4 µM | > 100 µM | 6.9 µM | 34.3 µM | 4.63 µM | > 100 µM | 26.7 µM | > 100 µM | 2.02 µM | 8.6 µM | 3.55 µM | 59.2 µM | 4.47 µM | 26.1 µM | 8.02 µM | > 100 µM |
| CC[C@@]1(OC(=O)CN(C)C)C(=O)OCc2c1cc1n(c2=O)Cc2cc3ccccc3nc2-1 | 0.00498 µM and 0.0451 µM | 0.32 µM and 2.03 µM | 0.0396 µM | 3.45 µM and 1.68 µM | – | 1.36 µM | 0.0665 µM | 0.643 µM and 0.43 µM | 0.217 µM | 4.43 µM and > 23.3 µM | – | 0.273 µM | 3.53 µM | > 100 µM | 0.0377 µM | – | < 0.0175 µM | 0.958 µM and 0.425 µM | 0.042 µM | 4.33 µM and 7.12 µM |
| C=C(CC1(CC(=C)c2ccc(C(=O)O)cc2)C(=O)N(C)C(=O)N(C)C1=O)c1ccc(C(=O)O)cc1 | 25.2 µM | > 100 µM | 31.3 µM | > 100 µM | 66.5 µM | > 100 µM | > 100 µM | > 100 µM | 47.4 µM | > 100 µM | > 100 µM | > 100 µM | 67.8 µM | > 100 µM | 63.8 µM | > 100 µM | 54.2 µM | > 100 µM | > 100 µM | > 100 µM |
| CCN(CC)CCOc1ccc(C2=C(c3ccccc3)CCc3cc(OC)ccc32)cc1 | 0.811 µM | 6.86 µM | 3.03 µM | 9.25 µM | 3.08 µM | 9.6 µM | 10.2 µM | 35.9 µM | 1.8 µM | 4.39 µM | 4.2 µM | 15.4 µM | 3.72 µM | 10.9 µM | 3.17 µM | 12.7 µM | 2.29 µM | 7.07 µM | 4.02 µM | 16.2 µM |
| C[C@H](NC(=O)CCC(F)(F)F)C(=O)N[C@@H]1C(=O)N(CCO)c2ncccc2-c2ccccc21 | > 100 µM | > 100 µM | > 100 µM | > 100 µM | > 100 µM | > 100 µM | > 100 µM | > 100 µM | > 100 µM | > 100 µM | > 100 µM | > 100 µM | > 100 µM | > 100 µM | > 100 µM | > 100 µM | > 100 µM | > 100 µM | > 100 µM | > 100 µM |
| Cc1ccc(OCCCCCCNCCO)c(C)c1 | 11.7 µM | 30.2 µM | 14.7 µM | 30.1 µM | 15 µM | 30.8 µM | 6.53 µM | 20.8 µM | 16.2 µM | 35.3 µM | 13.8 µM | 27.8 µM | 14.3 µM | 35.5 µM | 16.3 µM | 37.1 µM | 12.7 µM | 26.8 µM | 17.8 µM | 34.8 µM |
| COc1ncnc2c(-c3ccco3)cn(COCc3ccccc3)c12 | 2.98 µM | > 50 µM | 9.97 µM | > 50 µM | > 50 µM | > 50 µM | > 50 µM | > 50 µM | > 50 µM | > 50 µM | > 50 µM | > 50 µM | 18.6 µM | > 50 µM | > 50 µM | > 50 µM | 10.6 µM | > 50 µM | > 50 µM | > 50 µM |
| C#Cc1cccc(Nc2ncnc3ccc(-c4cncc(NS(C)(=O)=O)c4)cc23)c1 | 0.209 µM | 2.77 µM | 1.06 µM | 3.28 µM | 1.84 µM | 14.1 µM | 1.68 µM | 4.84 µM | 0.309 µM | 1.68 µM | 0.979 µM | 49.6 µM | 1.1 µM | 4.65 µM | 21.7 µM | > 100 µM | 2.5 µM | 10.3 µM | 3.63 µM | 14.9 µM |
| COc1cc(/C=C\c2cccnc2Nc2ccccc2)cc(OC)c1OC | 5.3 µM | 47.6 µM | 7.44 µM | 40.7 µM | 12.1 µM | > 100 µM | 5.22 µM | 64.8 µM | 12.6 µM | > 100 µM | 5.33 µM | 78.1 µM | 13.2 µM | > 100 µM | 4.44 µM | 63.2 µM | 4.1 µM | > 100 µM | 4.21 µM | > 100 µM |
